Experimental data as given in PMC9030254, “Target Hopping from Protein Kinases to PXR: Identification of Small-Molecule Protein Kinase Inhibitors as Selective Modulators of Pregnane X Receptor from TüKIC Library” (Cells, 2022).

Tests used:
Experiment in all cases: Kinase profiling
Assay type in all cases: biochemical
[1] = target: T1, ACVR1 (Homo sapiens, UniProt Q04771)
T1 construct: purchased ProQinase (Freiburg, Germany)
T1 sequence (Q04771 21-509): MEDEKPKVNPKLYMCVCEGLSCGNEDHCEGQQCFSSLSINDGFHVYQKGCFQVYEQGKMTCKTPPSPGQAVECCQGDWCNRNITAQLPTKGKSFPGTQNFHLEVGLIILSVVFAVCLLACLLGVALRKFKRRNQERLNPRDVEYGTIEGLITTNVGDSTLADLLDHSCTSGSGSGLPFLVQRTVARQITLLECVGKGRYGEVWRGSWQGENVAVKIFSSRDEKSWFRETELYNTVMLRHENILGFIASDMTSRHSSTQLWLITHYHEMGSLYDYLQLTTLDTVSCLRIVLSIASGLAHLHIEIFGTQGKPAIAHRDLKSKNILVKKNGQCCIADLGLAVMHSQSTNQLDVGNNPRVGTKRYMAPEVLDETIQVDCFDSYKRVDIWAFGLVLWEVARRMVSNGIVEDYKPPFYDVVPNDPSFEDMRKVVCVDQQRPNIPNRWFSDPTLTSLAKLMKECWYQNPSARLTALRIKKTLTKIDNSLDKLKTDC
Experimental: (§1) The analysis was performed by ProQinase (Freiburg, Germany).

[2] = target: T2, ALK (Homo sapiens, UniProt Q9UM73)
T2 construct: purchased ProQinase (Freiburg, Germany)
Experimental: as §1

[3] = target: T3, CAMK2G (Homo sapiens, UniProt Q13555)
T3 construct: purchased ProQinase (Freiburg, Germany)
Experimental: as §1

[4] = target: T4, CDK1/CycA2 (Homo sapiens, UniProt P06493)
T4 construct: purchased ProQinase (Freiburg, Germany)
Experimental: as §1

[5] = target: T5, CLK3 (Homo sapiens, UniProt P49761)
T5 construct: purchased ProQinase (Freiburg, Germany)
Experimental: as §1

[6] = target: T6, DAPK2 (Homo sapiens, UniProt Q9UIK4)
T6 construct: purchased ProQinase (Freiburg, Germany)
Experimental: as §1

[7] = target: T7, GSG2 (Homo sapiens, UniProt Q8TF76)
T7 construct: purchased ProQinase (Freiburg, Germany)
T7 sequence (Q8TF76 1-798): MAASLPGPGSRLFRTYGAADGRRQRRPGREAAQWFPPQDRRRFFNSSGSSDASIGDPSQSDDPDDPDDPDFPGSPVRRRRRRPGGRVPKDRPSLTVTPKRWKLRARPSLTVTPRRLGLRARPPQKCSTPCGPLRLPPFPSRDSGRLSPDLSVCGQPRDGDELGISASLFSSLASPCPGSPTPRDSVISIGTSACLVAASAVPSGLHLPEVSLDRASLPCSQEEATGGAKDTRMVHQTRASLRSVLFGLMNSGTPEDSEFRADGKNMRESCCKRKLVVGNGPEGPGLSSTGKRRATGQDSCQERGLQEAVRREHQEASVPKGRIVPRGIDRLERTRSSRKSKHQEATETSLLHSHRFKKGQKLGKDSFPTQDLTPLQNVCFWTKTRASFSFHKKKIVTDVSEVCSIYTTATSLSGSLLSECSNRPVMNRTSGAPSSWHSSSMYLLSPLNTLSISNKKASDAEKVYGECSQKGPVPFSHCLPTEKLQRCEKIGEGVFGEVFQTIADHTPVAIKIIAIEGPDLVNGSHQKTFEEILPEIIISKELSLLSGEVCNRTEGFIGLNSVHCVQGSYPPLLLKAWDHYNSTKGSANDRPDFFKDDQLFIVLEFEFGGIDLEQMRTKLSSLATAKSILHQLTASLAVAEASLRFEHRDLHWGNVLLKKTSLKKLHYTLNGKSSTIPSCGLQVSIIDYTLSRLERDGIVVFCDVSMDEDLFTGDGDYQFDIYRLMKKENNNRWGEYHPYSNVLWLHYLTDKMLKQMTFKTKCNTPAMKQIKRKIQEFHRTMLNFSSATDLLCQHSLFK
Experimental: as §1

[8] = target: T8, IGF1R (Homo sapiens, UniProt P08069)
T8 construct: purchased ProQinase (Freiburg, Germany)
Experimental: as §1

[9] = target: T9, MEKK3 (Homo sapiens, UniProt Q99759)
T9 construct: purchased ProQinase (Freiburg, Germany)
T9 sequence (Q99759 1-626): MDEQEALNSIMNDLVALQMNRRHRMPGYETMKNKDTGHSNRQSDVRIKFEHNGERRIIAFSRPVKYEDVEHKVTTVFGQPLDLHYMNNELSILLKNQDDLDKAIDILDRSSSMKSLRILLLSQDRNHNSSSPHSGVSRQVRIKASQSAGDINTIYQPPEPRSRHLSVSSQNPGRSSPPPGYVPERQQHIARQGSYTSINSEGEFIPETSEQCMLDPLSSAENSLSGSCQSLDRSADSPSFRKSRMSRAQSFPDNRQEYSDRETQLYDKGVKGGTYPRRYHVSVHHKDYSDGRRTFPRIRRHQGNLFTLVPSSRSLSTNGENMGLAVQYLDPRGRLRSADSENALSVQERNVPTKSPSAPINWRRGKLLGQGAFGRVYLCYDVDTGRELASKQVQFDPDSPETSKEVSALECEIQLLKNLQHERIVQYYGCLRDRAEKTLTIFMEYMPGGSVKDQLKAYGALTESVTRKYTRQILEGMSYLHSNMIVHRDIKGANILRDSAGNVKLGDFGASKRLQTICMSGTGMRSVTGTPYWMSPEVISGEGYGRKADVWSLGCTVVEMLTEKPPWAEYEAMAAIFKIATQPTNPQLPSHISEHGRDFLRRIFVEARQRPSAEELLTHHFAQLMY
Experimental: as §1

[10] = target: T10, NEK7 (Homo sapiens, UniProt Q8TDX7)
T10 construct: purchased ProQinase (Freiburg, Germany)
Experimental: as §1

T4 sequence (P06493 whole entry): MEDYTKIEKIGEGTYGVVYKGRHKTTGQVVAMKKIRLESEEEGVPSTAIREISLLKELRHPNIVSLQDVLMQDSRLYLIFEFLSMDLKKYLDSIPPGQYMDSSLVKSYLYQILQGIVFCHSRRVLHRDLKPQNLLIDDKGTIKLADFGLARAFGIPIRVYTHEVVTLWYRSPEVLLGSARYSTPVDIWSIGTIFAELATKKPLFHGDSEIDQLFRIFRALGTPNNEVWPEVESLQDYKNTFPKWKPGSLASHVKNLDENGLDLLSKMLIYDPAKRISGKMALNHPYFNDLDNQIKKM
T4 sequence (P20248 whole entry partner): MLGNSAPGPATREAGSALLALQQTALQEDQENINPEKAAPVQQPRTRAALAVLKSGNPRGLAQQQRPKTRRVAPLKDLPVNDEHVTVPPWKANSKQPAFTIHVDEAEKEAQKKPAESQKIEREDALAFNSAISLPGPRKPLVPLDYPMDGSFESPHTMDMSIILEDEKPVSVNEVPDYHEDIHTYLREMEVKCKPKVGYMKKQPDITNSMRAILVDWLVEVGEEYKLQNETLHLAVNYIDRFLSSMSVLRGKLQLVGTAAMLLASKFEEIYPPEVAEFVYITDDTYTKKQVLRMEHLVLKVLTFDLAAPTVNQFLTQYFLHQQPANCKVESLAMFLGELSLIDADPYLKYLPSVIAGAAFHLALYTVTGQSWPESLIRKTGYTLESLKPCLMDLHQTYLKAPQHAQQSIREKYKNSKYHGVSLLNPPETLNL
T2 sequence (Q9UM73 19-1620): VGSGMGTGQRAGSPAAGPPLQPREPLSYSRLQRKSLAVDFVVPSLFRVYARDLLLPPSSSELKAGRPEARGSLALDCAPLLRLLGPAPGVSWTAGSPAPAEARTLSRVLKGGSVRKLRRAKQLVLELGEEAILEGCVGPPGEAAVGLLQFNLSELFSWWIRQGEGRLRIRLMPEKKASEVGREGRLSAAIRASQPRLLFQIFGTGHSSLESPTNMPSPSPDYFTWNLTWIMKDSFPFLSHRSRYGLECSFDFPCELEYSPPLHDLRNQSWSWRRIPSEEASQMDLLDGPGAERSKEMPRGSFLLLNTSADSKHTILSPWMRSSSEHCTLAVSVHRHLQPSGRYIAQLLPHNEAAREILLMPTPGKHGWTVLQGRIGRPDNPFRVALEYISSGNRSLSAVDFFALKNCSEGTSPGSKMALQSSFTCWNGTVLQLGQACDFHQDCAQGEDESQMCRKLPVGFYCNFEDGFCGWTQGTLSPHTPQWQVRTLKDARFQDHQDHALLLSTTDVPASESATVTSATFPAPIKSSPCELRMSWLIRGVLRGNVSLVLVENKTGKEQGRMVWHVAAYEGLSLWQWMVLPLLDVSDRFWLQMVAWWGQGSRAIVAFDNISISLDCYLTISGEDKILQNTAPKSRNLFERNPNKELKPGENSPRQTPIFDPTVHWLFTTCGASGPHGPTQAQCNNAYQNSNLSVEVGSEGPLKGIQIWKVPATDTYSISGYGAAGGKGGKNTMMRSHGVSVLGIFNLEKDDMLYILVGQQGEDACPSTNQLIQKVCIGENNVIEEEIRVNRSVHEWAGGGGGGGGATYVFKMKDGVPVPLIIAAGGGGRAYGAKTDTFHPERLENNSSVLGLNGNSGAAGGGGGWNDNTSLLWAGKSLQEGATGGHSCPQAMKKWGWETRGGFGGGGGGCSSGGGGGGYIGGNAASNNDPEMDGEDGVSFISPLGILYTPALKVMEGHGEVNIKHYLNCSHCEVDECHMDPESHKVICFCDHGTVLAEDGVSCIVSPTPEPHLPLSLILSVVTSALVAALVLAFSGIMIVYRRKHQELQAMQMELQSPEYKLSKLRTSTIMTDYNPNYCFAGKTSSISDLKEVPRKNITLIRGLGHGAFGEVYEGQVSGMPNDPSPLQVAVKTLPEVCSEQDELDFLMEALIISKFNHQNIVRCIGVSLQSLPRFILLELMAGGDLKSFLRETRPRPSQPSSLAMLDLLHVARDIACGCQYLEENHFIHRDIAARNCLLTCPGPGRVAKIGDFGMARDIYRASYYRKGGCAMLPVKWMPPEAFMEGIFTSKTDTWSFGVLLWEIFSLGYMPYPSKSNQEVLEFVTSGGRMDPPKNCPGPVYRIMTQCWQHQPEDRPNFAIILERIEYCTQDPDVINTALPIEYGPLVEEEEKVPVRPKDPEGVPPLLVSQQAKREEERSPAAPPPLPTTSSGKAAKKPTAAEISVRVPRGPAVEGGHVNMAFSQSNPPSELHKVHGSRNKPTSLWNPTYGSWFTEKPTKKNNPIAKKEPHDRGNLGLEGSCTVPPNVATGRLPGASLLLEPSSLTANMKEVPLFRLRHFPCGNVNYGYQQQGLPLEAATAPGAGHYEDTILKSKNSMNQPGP
T10 sequence (Q8TDX7 whole entry): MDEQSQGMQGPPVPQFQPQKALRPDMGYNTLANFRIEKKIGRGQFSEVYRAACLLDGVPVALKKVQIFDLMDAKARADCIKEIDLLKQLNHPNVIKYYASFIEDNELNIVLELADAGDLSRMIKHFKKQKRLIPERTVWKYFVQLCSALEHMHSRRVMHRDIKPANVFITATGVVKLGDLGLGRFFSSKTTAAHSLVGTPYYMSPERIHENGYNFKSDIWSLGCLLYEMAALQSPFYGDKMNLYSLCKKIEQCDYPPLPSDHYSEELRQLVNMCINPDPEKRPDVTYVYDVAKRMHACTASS
T6 sequence (Q9UIK4 whole entry): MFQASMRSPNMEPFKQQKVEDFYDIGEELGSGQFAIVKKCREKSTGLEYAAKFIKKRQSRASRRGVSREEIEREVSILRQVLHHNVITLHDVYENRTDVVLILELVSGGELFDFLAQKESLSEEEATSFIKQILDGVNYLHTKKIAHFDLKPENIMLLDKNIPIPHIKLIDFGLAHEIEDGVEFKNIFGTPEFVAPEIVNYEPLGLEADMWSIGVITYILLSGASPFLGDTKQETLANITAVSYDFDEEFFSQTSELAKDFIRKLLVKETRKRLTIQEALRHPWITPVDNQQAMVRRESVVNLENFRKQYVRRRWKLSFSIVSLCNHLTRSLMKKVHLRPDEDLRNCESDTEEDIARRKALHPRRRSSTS
T8 sequence (P08069 31-1367): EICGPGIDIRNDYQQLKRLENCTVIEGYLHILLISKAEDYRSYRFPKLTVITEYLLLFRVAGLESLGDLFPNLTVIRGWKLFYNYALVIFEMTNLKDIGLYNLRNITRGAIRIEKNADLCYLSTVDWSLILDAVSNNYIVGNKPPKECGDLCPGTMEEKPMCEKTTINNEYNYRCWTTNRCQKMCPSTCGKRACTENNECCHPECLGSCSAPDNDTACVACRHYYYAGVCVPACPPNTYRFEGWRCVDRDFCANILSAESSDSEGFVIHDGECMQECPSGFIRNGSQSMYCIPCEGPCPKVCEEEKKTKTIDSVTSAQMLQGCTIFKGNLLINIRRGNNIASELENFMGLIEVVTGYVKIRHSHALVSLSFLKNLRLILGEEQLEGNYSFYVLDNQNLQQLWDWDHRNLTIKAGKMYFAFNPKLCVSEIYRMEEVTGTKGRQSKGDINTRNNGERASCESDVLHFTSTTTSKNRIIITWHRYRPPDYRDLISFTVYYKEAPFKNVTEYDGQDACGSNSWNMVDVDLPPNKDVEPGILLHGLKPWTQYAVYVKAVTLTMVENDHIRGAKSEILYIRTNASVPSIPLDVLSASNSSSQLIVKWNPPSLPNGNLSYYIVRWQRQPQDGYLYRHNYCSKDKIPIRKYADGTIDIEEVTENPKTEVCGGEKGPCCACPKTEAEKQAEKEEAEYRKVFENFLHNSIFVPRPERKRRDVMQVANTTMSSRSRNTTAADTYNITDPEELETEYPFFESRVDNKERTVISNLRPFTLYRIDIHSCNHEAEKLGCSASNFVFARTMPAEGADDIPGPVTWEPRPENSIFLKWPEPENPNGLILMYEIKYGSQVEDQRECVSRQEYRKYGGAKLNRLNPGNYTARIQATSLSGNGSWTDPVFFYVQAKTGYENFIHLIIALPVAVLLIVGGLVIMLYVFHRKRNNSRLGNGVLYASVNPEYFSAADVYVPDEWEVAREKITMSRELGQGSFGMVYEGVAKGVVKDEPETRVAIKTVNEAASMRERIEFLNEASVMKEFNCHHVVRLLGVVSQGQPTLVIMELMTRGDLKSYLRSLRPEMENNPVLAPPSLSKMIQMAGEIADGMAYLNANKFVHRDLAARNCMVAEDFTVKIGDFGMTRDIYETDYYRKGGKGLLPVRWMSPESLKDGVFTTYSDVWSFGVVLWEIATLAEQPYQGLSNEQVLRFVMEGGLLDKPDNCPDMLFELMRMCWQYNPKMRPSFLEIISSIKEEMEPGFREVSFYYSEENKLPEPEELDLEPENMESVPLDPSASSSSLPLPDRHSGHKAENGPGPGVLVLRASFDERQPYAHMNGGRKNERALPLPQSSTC
T3 sequence (Q13555 whole entry): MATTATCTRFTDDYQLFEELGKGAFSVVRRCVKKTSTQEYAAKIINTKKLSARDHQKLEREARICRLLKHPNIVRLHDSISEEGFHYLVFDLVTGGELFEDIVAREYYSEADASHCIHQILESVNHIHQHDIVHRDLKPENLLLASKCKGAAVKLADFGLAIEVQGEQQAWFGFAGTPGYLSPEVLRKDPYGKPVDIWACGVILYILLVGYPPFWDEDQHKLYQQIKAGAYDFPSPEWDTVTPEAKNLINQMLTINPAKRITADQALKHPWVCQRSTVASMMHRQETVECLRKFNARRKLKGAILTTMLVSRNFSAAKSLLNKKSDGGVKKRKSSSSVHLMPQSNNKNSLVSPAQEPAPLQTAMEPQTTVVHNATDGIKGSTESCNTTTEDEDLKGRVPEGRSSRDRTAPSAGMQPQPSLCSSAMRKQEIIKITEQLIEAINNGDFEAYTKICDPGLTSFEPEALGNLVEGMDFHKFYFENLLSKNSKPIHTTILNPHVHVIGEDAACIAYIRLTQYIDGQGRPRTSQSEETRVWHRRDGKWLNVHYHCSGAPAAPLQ

SMILES | Residual activity ([1]; 1.0E-05 M) | Residual activity ([1]; 1.0E-06 M) | Residual activity ([2]; 1.0E-05 M) | Residual activity ([2]; 1.0E-06 M) | Residual activity ([3]; 1.0E-05 M) | Residual activity ([3]; 1.0E-06 M) | Residual activity ([4]; 1.0E-05 M) | Residual activity ([4]; 1.0E-06 M) | Residual activity ([5]; 1.0E-05 M) | Residual activity ([5]; 1.0E-06 M) | Residual activity ([6]; 1.0E-05 M) | Residual activity ([6]; 1.0E-06 M) | Residual activity ([7]; 1.0E-05 M) | Residual activity ([7]; 1.0E-06 M) | Residual activity ([8]; 1.0E-05 M) | Residual activity ([8]; 1.0E-06 M) | Residual activity ([9]; 1.0E-05 M) | Residual activity ([9]; 1.0E-06 M) | Residual activity ([10]; 1.0E-05 M) | Residual activity ([10]; 1.0E-06 M)
O=C(Cc1ccccc1)Nc1ccc(F)c(Nc2ccc3c(c2)CCCCC3=O)c1 [Compound 100] | 93 % of control | 97 % of control | 72 % of control | 86 % of control | 107 % of control | 105 % of control | 83 % of control | 85 % of control | 114 % of control | 130 % of control | 124 % of control | 113 % of control | 78 % of control | 92 % of control | 101 % of control | 97 % of control | 104 % of control | 95 % of control | 118 % of control | 109 % of control
O=C(Nc1ccc(F)c(Nc2ccc3c(c2)CCCCC3=O)c1)c1cccc(F)c1 [Compound 109] | 97 % of control | 88 % of control | 92 % of control | 95 % of control | 111 % of control | 109 % of control | 88 % of control | 86 % of control | 105 % of control | 110 % of control | 133 % of control | 110 % of control | 68 % of control | 93 % of control | 80 % of control | 104 % of control | 102 % of control | 94 % of control | 121 % of control | 108 % of control
